In US8772489B2, “Optically active 2-hydroxy tetrahydrothienopyridine derivatives, preparation method and use in manufacture of medicament thereof” (Jiangsu Vcare PharmaTech Co. Ltd., priority 2010, dated 2014):
Where “and” joins values, the source holds several entries; their conditions need not be identical. Equal entries are not always repeated. Structures can show the parent of a compound that is named as a salt. Where two headings read alike, the source gives them in different places.

Assays:
platelet aggregation = assay: animal or person; type: in vivo; conditions: Rattus norvegicus, read-out: Aggregation inhibition (%)
Excerpt: The positive control and the test compounds (prepared in the above examples) were formulated in 0.5% CMC-Na (carboxymethylcellulose sodium) into suspensions for administration to animals.
Animals: male SD rats, weighed about 250 g, and supplied by Shanghai Super-B&K Laboratory Animal Corp. Ltd. Animal certificate No.: 2008001605451, and license No.: SCXK (Hu); SCXK (Hu) 2008-0016.
Instruments: a centrifuge (80-2 bench top low-speed centrifuge), an automatic platelet aggregation tester (STELLEXLG-PAPER-I platelet coagulation/aggregation analyzer), and others.
Methods: the pharmacological activity test of the compounds of the present invention for platelet aggregation was performed following Born's turbidimetric method (Nature, 1962, 194(4832): 927). An agglomeration-promoting substance, adenosine diphosphate (ADP), was added to a platelet rich plasma (PRP), and stirred to allow platelets to aggregate. […] This experiment can be used to evaluate the platelet aggregation effect induced by the test compounds administrated in-vivo or in-vitro.
The PRP was adjusted with a platelet poor plasma (PPP) to maintain the platelet counts at […]. The PRP was taken into a test cup, and incubated at 37° C. for 10 min. Light transmission was adjusted to 0% with PRP and to 100% with PPP for each measurement. By using ADP (with a final concentration of 5 μM) as an inducer, the platelet aggregation percentages were measured through the turbidimetric method using a platelet aggregation tester, and statistically compared by t-test. The platelet aggregation inhibition was calculated by the equation: platelet aggregation inhibition (%)=[1−(aggregation percent in dosed tube/aggregation percent in control tube)]×100%.

[1] = Pharmacokinetics and bioavailability of Compound I-2 in rats (plasma Compound IV-1 by LC-MS/MS); type: in vivo, rat; conditions: for Concentration of Compound IV-1 in plasma, single animals / concentration at 0.08 h / concentration at 0.167 h / concentration at 0.5 h / concentration at 1 h / concentration at 2 h / concentration at 4 h / concentration at 6 h: intravenous injection 8 μmol/kg; for concentration at 0.08 h / concentration at 0.167 h / concentration at 0.5 h / concentration at 1 h / concentration at 2 h / concentration at 4 h / concentration at 6 h: 8 μmol/kg
Excerpt: The rats were fasted overnight, but allowed free access to water.

[2] = male SD rats, oral gavage 3 mg/kg, blood after 2 hrs, ADP 5 μM
[3] = male SD rats, oral gavage 10 mg/kg, blood after 2 hrs, ADP 5 μM
[4] = SD rats, intravenous injection 8 μmol/kg (2.7 mg/kg), individual animal

SMILES: COC(=O)C(c1ccccc1Cl)N1CCc2sc(OC(C)=O)cc2C1 (racemic) [I-2″, (R,S)-Methyl 2-(2-acetoxy-6,7-dihydrothieno[3,2-c]pyridin-5(4H)-yl)-2-(2-chlorophenyl)-acetate]
- inhibition at 3 mg/kg (platelet aggregation; [2]): 43.9%
- inhibition at 10 mg/kg (platelet aggregation; [3]): 78.5%

SMILES: COC(=O)C(c1ccccc1Cl)N1CCc2sc(OC(=O)N(C)C)cc2C1 (racemic) [I-18′, (R,S)-Methyl 2-(2-(N,N-dimethylcarbamoyloxy)-6,7-dihydrothieno[3,2-c]pyridin-5(4H)-yl)-2-(2-chlorophenyl)-acetate]
- inhibition at 3 mg/kg (platelet aggregation; po, 2 h): 29.8%

SMILES: COC(=O)[C@H](c1ccccc1Cl)N1CCc2sccc2C1 [Clopidogrel sulfate, reference compound]
- inhibition at 3 mg/kg (platelet aggregation; po, 2 h): 15.4%
- inhibition at 10 mg/kg (platelet aggregation; po, 2 h): 79.6%

SMILES: COC(=O)[C@H](c1ccccc1Cl)N1CCc2sc(OC(C)=O)cc2C1 [Compound I-2, (S)-Methyl 2-(2-acetoxy-6,7-dihydrothieno[3,2-c]pyridin-5(4H)-yl)-2-(2-chlorophenyl)-acetate]
- inhibition at 3 mg/kg (platelet aggregation; [2]): 69.9%
- inhibition at 10 mg/kg (platelet aggregation; [3]): 83.5%

SMILES: CCC(=O)Oc1cc2c(s1)CCN([C@H](C(=O)OC)c1ccccc1Cl)C2 [Compound I-3, (S)-Methyl 2-(2-propanoyloxy-6,7-dihydrothieno[3,2-c]pyridin-5(4H)-yl)-2-(2-chlorophenyl)-acetate]
- inhibition at 3 mg/kg (platelet aggregation; [2]): 38.4%

SMILES: CCCC(=O)Oc1cc2c(s1)CCN([C@H](C(=O)OC)c1ccccc1Cl)C2 [Compound I-4, (S)-methyl 2-(2-butanoyloxy-6,7-dihydrothieno[3,2-c]pyridin-5 (4H)-yl)-2-(2-chlorophenyl)-acetate]
- inhibition at 3 mg/kg (platelet aggregation; [2]): 46.2%

SMILES: COC(=O)[C@H](c1ccccc1Cl)N1CCc2sc(OC(=O)c3ccccc3OC(C)=O)cc2C1 [Compound I-5, (S)-methyl 2-(2-(2-acetoxybenzoyloxy)-6,7-dihydrothieno[3,2-c]pyridin-5(4H)-yl)-2-(2-chlorophenyl)-acetate]
- inhibition at 3 mg/kg (platelet aggregation; po, 2 h): 55.1%

SMILES: COC(=O)[C@H](c1ccccc1Cl)N1CCc2sc(OC(=O)C(C)(C)C)cc2C1 [Compound I-7, (S)-methyl 2-(2-pivaloyloxy-6,7-dihydrothieno[3,2-c]pyridin-5(4H)-yl)-2-(2-chlorophenyl)-acetate]
- inhibition at 3 mg/kg (platelet aggregation; [2]): 41.9%

SMILES: COC(=O)[C@H](c1ccccc1Cl)N1CCc2sc(OC(=O)c3ccc(OC)cc3)cc2C1 [Compound I-11, (S)-Methyl 2-(2-(4-methoxybenzoyloxy)-6,7-dihydrothieno[3,2-c]pyridin-5(4H)-yl)-2-(2-chlorophenyl)-acetate]
- inhibition at 3 mg/kg (platelet aggregation; [2]): 13.6%

SMILES: COC(=O)[C@H](c1ccccc1Cl)N1CCc2sc(OC(=O)Cc3ccccc3)cc2C1 [Compound I-12, (S)-Methyl 2-(2-phenylacetoxy-6,7-dihydrothieno[3,2-c]pyridin-5(4H)-yl)-2-(2-chlorophenyl)-acetate]
- inhibition at 3 mg/kg (platelet aggregation; [2]): 18.3%

SMILES: COC(=O)[C@H](c1ccccc1Cl)N1CCc2sc(OC(=O)OCC(C)C)cc2C1 [Compound I-15, (S)-Methyl 2-(2-(isobutoxycarbonyloxy)-6,7-dihydrothieno[3,2-c]pyridin-5(4H)-yl)-2-(2-chlorophenyl)-acetate]
- inhibition at 3 mg/kg (platelet aggregation; [2]): 45.3%

SMILES: COC(=O)[C@H](c1ccccc1Cl)N1CCC2SC(=O)C=C2C1 (stereo partly drawn) [IV-1, (2S)-Methyl 2-(2-oxo-7,7a-dihydrothieno[3,2-c]pyridin-5 (2H,4H,6H)-yl)-2-(2-chlorophenyl)-acetate]
- AUC0-t of Compound IV-1, single animals [1, 4]: 0.304 µg·h/mL and 0.229 µg·h/mL
- AUC0-∞ of Compound IV-1, single animals [1, 4]: 0.306 µg·h/mL and 0.229 µg·h/mL
- CLtot of Compound IV-1, single animals [1, 4]: 8.84 L/h/kg and 11.8 L/h/kg
- Cmax of Compound IV-1, single animals [1, 4]: 0.785 µg/mL and 0.533 µg/mL
- V2 of Compound IV-1, single animals [1, 4]: 18.8 L/kg and 15.9 L/kg and 10.9 L/kg
- t1/2 of Compound IV-1, single animals [1, 4]: 78 min and 75 min and 38.6 min
- V2 of Compound IV-1, Mean ([1]; SD rats, intravenous injection 8 μmol/kg (2.7 mg/kg), mean of 3): 15.2 L/kg
- Concentration of Compound IV-1 in plasma, single animals ([1]; SD rats, 0.08 h, individual animal): 0.785 µg/mL and 0.533 µg/mL
- Concentration of Compound IV-1 in plasma, single animals ([1]; SD rats, 0.167 h, individual animal): 0.417 µg/mL and 0.311 µg/mL
- Concentration of Compound IV-1 in plasma, single animals ([1]; SD rats, 0.5 h, individual animal): 0.129 µg/mL and 0.107 µg/mL
- Concentration of Compound IV-1 in plasma, single animals ([1]; SD rats, 1 h, individual animal): 0.0493 µg/mL and 0.0373 µg/mL
- Concentration of Compound IV-1 in plasma, single animals ([1]; SD rats, 2 h, individual animal): 0.00906 µg/mL and 0.00974 µg/mL
- Concentration of Compound IV-1 in plasma, single animals ([1]; SD rats, 4 h, individual animal): 0.00287 µg/mL and 0.00202 µg/mL
- Concentration of Compound IV-1 in plasma, single animals ([1]; SD rats, 6 h, individual animal): 0.000977 µg/mL and 0.00106 µg/mL
- AUC(0-t) ([1]; male, SD, rat, plasma, iv, 2.7 mg/kg, intravenous injection 8 μmol/kg (2.7 mg/kg), individual animal, read-out: AUC0-t of Compound IV-1, single animals): 0.266 µg·h/mL
- AUC(0-inf) ([1]; male, SD, rat, plasma, iv, 2.7 mg/kg, intravenous injection 8 μmol/kg (2.7 mg/kg), individual animal, read-out: AUC0-∞ of Compound IV-1, single animals): 0.269 µg·h/mL
- clearance ([1]; male, SD, rat, plasma, iv, 2.7 mg/kg, intravenous injection 8 μmol/kg (2.7 mg/kg), individual animal, read-out: CLtot of Compound IV-1, single animals (converted)): 10 L/h/kg
- Cmax ([1]; male, SD, rat, plasma, iv, 2.7 mg/kg, intravenous injection 8 μmol/kg (2.7 mg/kg), individual animal, read-out: Cmax of Compound IV-1, single animals): 0.696 µg/mL
- clearance ([1]; male, SD, rat, plasma, iv, 2.7 mg/kg, intravenous injection 8 μmol/kg (2.7 mg/kg), mean of 3, read-out: CLtot of Compound IV-1, Mean (converted)): 10.2 L/h/kg
- Tmax ([1]; male, Sprague-Dawley, rat, plasma, 8 umol/kg, SD rats, intravenous injection 8 μmol/kg (2.7 mg/kg), mean of 3, read-out: Tmax of Compound IV-1, Mean): 4.98 min
- AUC(0-t) ([1]; male, Sprague-Dawley, rat, plasma, iv, 8 umol/kg, SD rats, intravenous injection 8 μmol/kg (2.7 mg/kg), mean of 3, read-out: AUC0-t of Compound IV-1, Mean): 0.266 ± 0.0376 µg·h/mL
- AUC(0-inf) ([1]; male, Sprague-Dawley, rat, plasma, iv, 8 umol/kg, SD rats, intravenous injection 8 μmol/kg (2.7 mg/kg), mean of 3, read-out: AUC0-∞ of Compound IV-1, Mean): 0.268 ± 0.0383 µg·h/mL
- Cmax ([1]; male, Sprague-Dawley, rat, plasma, iv, 8 umol/kg, SD rats, intravenous injection 8 μmol/kg (2.7 mg/kg), mean of 3, read-out: Cmax of Compound IV-1, Mean): 0.671 ± 0.128 µg/mL
- half-life ([1]; male, Sprague-Dawley, rat, plasma, iv, 8 umol/kg, SD rats, intravenous injection 8 μmol/kg (2.7 mg/kg), mean of 3, read-out: t1/2 of Compound IV-1, Mean (converted)): 63.6 ± 21.8 min
- concentration at 0.08 h ([1]; male, Sprague-Dawley, rat, plasma, iv, SD rats, 0.08 h, individual animal, read-out: Concentration of Compound IV-1 in plasma, single animals): 0.696 µg/mL
- concentration at 0.08 h ([1]; male, Sprague-Dawley, rat, plasma, iv, SD rats, 0.08 h, mean of 3, read-out: Concentration of Compound IV-1 in plasma, Mean): 0.671 µg/mL
- concentration at 0.167 h ([1]; male, Sprague-Dawley, rat, plasma, iv, SD rats, 0.167 h, individual animal, read-out: Concentration of Compound IV-1 in plasma, single animals): 0.317 µg/mL
- concentration at 0.167 h ([1]; male, Sprague-Dawley, rat, plasma, iv, SD rats, 0.167 h, mean of 3, read-out: Concentration of Compound IV-1 in plasma, Mean): 0.348 µg/mL
- concentration at 0.5 h ([1]; male, Sprague-Dawley, rat, plasma, iv, SD rats, 0.5 h, individual animal, read-out: Concentration of Compound IV-1 in plasma, single animals): 0.108 µg/mL
- concentration at 0.5 h ([1]; male, Sprague-Dawley, rat, plasma, iv, SD rats, 0.5 h, mean of 3, read-out: Concentration of Compound IV-1 in plasma, Mean): 0.115 µg/mL
- concentration at 1 h ([1]; male, Sprague-Dawley, rat, plasma, iv, SD rats, 1 h, individual animal, read-out: Concentration of Compound IV-1 in plasma, single animals): 0.051 µg/mL
- concentration at 1 h ([1]; male, Sprague-Dawley, rat, plasma, iv, SD rats, 1 h, mean of 3, read-out: Concentration of Compound IV-1 in plasma, Mean): 0.0459 µg/mL
- concentration at 2 h ([1]; male, Sprague-Dawley, rat, plasma, iv, SD rats, 2 h, individual animal, read-out: Concentration of Compound IV-1 in plasma, single animals): 0.0109 µg/mL
- concentration at 2 h ([1]; male, Sprague-Dawley, rat, plasma, iv, SD rats, 2 h, mean of 3, read-out: Concentration of Compound IV-1 in plasma, Mean): 0.0099 µg/mL
- concentration at 4 h ([1]; male, Sprague-Dawley, rat, plasma, iv, SD rats, 4 h, individual animal, read-out: Concentration of Compound IV-1 in plasma, single animals): 0.00394 µg/mL
- concentration at 4 h ([1]; male, Sprague-Dawley, rat, plasma, iv, SD rats, 4 h, mean of 3, read-out: Concentration of Compound IV-1 in plasma, Mean): 0.00294 µg/mL
- concentration at 6 h ([1]; male, Sprague-Dawley, rat, plasma, iv, SD rats, 6 h, individual animal, read-out: Concentration of Compound IV-1 in plasma, single animals): 0.00129 µg/mL
- concentration at 6 h ([1]; male, Sprague-Dawley, rat, plasma, iv, SD rats, 6 h, mean of 3, read-out: Concentration of Compound IV-1 in plasma, Mean): 0.00111 µg/mL
- Tmax ([1]; male, rat, plasma, SD rats, intravenous injection 8 μmol/kg (2.7 mg/kg), individual animal, read-out: Tmax of Compound IV-1, single animals): 4.98 min
